Paper PMC3447335, “Evaluation of Pseudopteroxazole and Pseudopterosin Derivatives against Mycobacterium tuberculosis and Other Pathogens” (Marine Drugs, 2012)
≈ marks a conversion by molar mass, not a printed value.

What was measured:
NCI-60 cell line = conditions: cited from earlier work
Vero cells = experiment: cells; conditions: Chlorocebus sabaeus; for cytotoxicity at 128 µg/mL: read-out: Vero cell (% inh); for IC50: read-out: Vero cell IC50
[1] = tested on: M. tuberculosis H37Rv (ATCC 27294); experiment: microbe, parasite or virus in culture; assay type: cell-based, Mycobacterium tuberculosis; conditions: Mycobacterium tuberculosis; for inhibition at 64 µg/mL: % inhibition at 64 μg/mL, read-out: LORA % inh; for MIC: read-out: LORA MIC
[2] = tested on: M. tuberculosis H37Rv (ATCC 27294); experiment: Microplate Alamar blue assay (MABA); assay type: cell-based, Mycobacterium tuberculosis; conditions: for MIC: Mycobacterium tuberculosis
M. tuberculosis H37Rv [3] = tested on: M. tuberculosis H37Rv; design: method as in PMID 12828474; conditions: natural 2 isolated from P. elisabethae, at 12.5 μg/mL (40 μM); cited from earlier work
M. tuberculosis H37Rv [4] = tested on: M. tuberculosis H37Rv; design: method as in PMID 9145860; conditions: comparison values; cited from earlier work
[5] = M. tuberculosis H37Rv (ATCC 27294), replicating, read-out: MABA MIC

Molecule: CC(C)=C[C@@H]1C[C@H](C)[C@H]2CC[C@H](C)c3c2c1c(C)c1ncoc31 [Compound 1, pseudopteroxazole]
- cytotoxicity against the NCI-60 cell line assay (NCI-60 cell line): no significant cytotoxicity
- cytotoxicity at 128 µg/mL (Vero cells): 0%
- IC50 (Vero cells): > 128 µg/mL
- inhibition at 64 µg/mL [1]: 99.7%
- MIC ([1]; non-replicating persistent model): 50 µg/mL
- MIC ([1]; value given in μM): 162 µM
- SI (Selectivity Index) ([2]; (Vero Cell IC50)/(M. tuberculosis MIC)): >8.6
- MIC [2, 5]: 15 µg/mL (≈ 48.5 µM)
- MIC ([2]; wild-type M. tuberculosis H37Rv, Table 2 experiment, read-out: MABA MIC H37Rv): 7 µg/mL (≈ 22.6 µM)

Molecule: CCCCCc1nc2c(C)c3c4c(c2o1)[C@@H](C)CC[C@@H]4[C@@H](C)C[C@H]3C=C(C)C [Compound 2, homopseudopteroxazole]
- inhibition against M. tuberculosis H37Rv (M. tuberculosis H37Rv [3]): 80%
- cytotoxicity at 128 µg/mL (Vero cells): 0%
- IC50 (Vero cells): > 128 µg/mL
- inhibition at 64 µg/mL [1]: 22.6%
- MIC [2, 5]: > 128 µg/mL
- activity against M. tuberculosis H37Rv ([2]; semi-synthetic material, MABA): not active

Molecule: NC[C@H]1O[C@H](O[C@H]2[C@H](O)[C@@H](O[C@H]3O[C@H](CO)[C@@H](O)[C@H](N)[C@H]3O)[C@H](N)C[C@@H]2N)[C@H](O)[C@@H](O)[C@@H]1O [kanamycin]
- MIC of first and second line TB treatments (M. tuberculosis H37Rv [4]): 2.5 to 10.3 µM

Molecule: capreomycin
- MIC of first and second line TB treatments (M. tuberculosis H37Rv [4]): 0.94 to 3.7 µM
